Measurements taken from US10584134B2, “Use of physiological cooling active ingredients, and agents containing such active ingredients” (SYMRISE AG, priority 2009, dated 2020).
Structures can show the parent of a compound that is named as a salt.

Biological target: human TRPM8 receptor (Homo sapiens (Human), UniProt Q7Z2W7)
Assay: Assay on TRPM8 modulators (Ca2+-sensitive dye, HEK293-TRPM8 test cells, EC50 determination)
Type: cell-based
Details: assay according to reference example 3
Source text: As a test cell system the human TRPM8 DNA (see plasmid pInd-M8 above) was used to prepare a stable transfixed HEK293 cell line. Here preference is for HEK293 which via the plasmid introduced offers the possibility of induction of the TRPM8 expression by means of tetracycline.
The agonisation or antagonisation of the receptor can be quantified by means of a Ca^2+-sensitive dye (e.g. FURA, Fluo-4, etc.).
To begin with, in a manner known per se, in cell culture flasks a fresh culture of transformed HEK cells is prepared. The HEK293-TRPM8 test cells are removed using trypsin from the cell culture flasks and 40 000 cells/well are sown with 100 μl medium in 96-well plates (Greiner #655948 Poly-D-lysine coated). In order to induce the TRPM8 receptor the growth medium tetracycline is mixed in (DMEM/HG, 10% FCS tetracycline-free, 4 mM L-glutamine, 15 μg/ml blasticidin, 100 μg/ml hygromycin B, 1 μg/ml tetracycline). The next day the cells are charged with Fluo-4Am dye and the test is performed.
The test substances are used in triplicate in concentrations of between 0.1 and 200 μm in the assay. Normally the compounds are kept ready in DMSO solutions and diluted for the assay to a maximum DMSO concentration of 2%.

human TRPM8 receptor, sequence (Q7Z2W7 whole entry): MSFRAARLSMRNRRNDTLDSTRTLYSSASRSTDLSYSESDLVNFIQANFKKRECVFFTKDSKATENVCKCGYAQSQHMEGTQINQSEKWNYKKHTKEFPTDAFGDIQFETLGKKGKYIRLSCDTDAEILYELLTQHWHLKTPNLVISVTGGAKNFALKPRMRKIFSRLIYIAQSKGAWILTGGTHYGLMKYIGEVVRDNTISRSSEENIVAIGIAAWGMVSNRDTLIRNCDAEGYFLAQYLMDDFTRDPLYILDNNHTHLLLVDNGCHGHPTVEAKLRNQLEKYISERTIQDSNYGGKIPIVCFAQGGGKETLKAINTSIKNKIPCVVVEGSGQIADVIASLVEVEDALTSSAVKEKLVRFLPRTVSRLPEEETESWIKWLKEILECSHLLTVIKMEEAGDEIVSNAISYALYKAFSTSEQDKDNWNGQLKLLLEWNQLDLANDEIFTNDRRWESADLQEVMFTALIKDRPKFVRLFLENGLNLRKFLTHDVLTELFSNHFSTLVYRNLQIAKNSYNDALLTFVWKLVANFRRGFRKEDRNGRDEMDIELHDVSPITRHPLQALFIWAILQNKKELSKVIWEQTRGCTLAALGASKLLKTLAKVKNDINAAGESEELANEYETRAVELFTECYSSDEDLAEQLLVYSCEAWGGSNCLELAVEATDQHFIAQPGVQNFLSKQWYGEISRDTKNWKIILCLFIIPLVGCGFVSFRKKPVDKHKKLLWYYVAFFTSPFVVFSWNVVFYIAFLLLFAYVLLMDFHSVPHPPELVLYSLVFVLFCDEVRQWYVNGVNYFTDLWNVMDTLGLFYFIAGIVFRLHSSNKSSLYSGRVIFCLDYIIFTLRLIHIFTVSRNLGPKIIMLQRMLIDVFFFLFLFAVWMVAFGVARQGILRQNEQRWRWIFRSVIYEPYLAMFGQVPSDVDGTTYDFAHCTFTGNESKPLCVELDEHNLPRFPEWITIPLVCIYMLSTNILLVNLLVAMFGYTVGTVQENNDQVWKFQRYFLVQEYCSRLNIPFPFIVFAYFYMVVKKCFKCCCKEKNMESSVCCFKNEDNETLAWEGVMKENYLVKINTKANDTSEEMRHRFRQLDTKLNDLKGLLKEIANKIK

EC50 (Table B, structure type 2) [nM] | EC50 (Table C, structure type 3) [nM] | Structure (SMILES) | further results
1600 |  | COc1cnc(-c2ccccn2)nc1NC(C)C [Compound 2-16, Isopropyl-(5-methoxy-2-pyridin-2-yl-pyrimidin-4-yl)-ammonium fumarate] | 
 | 700 | COc1ccc(/C=C/C(=O)N(c2ccccc2)C2CCCCC2)cc1 [Compound 3-19] | 
 | 100 | O=C(/C=C/c1ccc2c(c1)OCO2)N(c1ccccn1)C1CCCCC1 [Compound 3-1, (E)-3-benzo[1,3]dioxol-5-yl-N-cyclohexyl-N-pyridin-2-yl-acrylamide] | 
 | 2100 | Cc1ccc(/C=C/C(=O)N(C2CCCCC2)C2CCCCC2)cc1 [Compound 3-33] | 
 | 10900 | COc1ccc(C(=O)N(c2ccccn2)C2CCCCC2)cc1 [Compound 3-48] | 
 |  | C[C@H]1OC(=O)C2=C1N1CCc3ccccc3C1CC2=O (stereo partly shown) [Compound 1-9] | EC50 (Table A, structure type 1): 10000 nM
 | 5900 | COc1cccc(/C=C/C(=O)N(c2ccccc2)c2ccccc2)c1OC [Compound 3-40] | 
500 |  | COc1cnc(-c2ccccn2)nc1NC(C)C [Compound 2-18, Isopropyl-(5-methoxy-2-pyridin-2-yl-pyrimidin-4-yl)-ammonium tartrate] | 
 | 200 | CC(C)N(C(=O)/C=C/c1ccc2c(c1)OCO2)C1CCCCC1 [Compound 3-5, (E)-3-benzo[1,3]dioxol-5-yl-N-cyclohexyl-N-isopropyl-acrylamide] | 
 | 2900 | O=C(/C=C/c1ccccc1)N(c1ccccc1)c1ccccc1 [Compound 3-27, Cinammic acid-N,N-diphenylamide] | 
100 |  | COc1cnc(-c2ccccn2)nc1NC(C)C [Compound 2-1, Isopropyl-(5-methoxy-2-pyridin-2-yl-pyrimidin-4-yl)-amine] | 
 | 11800 | O=C(/C=C/c1ccc2c(c1)OCO2)N(C1CCCCC1)C1CCCCC1 [Compound 3-2] | 
100 |  | CC[C@@H](C)Nc1nc(-c2ccccn2)ncc1OC (stereo in doubt) [Compound 2-5, Sec-butyl-(5-methoxy-2-pyridin-2-yl-pyrimidin-4-yl)-amine] | 
 | 2600 | COc1cccc(/C=C/C(=O)N(c2ccccc2)C2CCCCC2)c1OC [Compound 3-39] | 
900 |  | COc1cnc(-c2ccccn2)nc1NC(C)C [Compound 2-20] | 
 | 8200 | CC(C)CN(C(=O)/C=C/c1ccc2c(c1)OCO2)c1ccc(Cl)cc1 [Compound 3-16] | 
800 |  | COc1cnc(-c2ccccn2)nc1NC1CCC1 [Compound 2-3, Cyclobutyl-(5-methoxy-2-pyridin-2-yl-pyrimidin-4-yl)-amine] | 
1000 |  | COc1cnc(-c2ccccn2)nc1NC(C)CCO (stereo not shown) [Compound 2-9] | 
 | 1700 | Cc1ccccc1N(Cc1ccccc1)C(=O)Cc1ccccc1 [Compound 3-47] | 
 |  | O=C1CCCC2=C1C1(CC3c4ccccc4CCN23)SCCS1 (stereo not shown) [Compound 1-1, 2,3,4,5,6,10b,11,12-octahydro-spiro[4b-azachrysene-12,2′-[1,3]dithioland-]-1-one] | EC50 (Table A, structure type 1): 100 nM
300 |  | COc1cnc(-c2ccccn2)nc1NC(C)C [Compound 2-19, Isopropyl-(5-methoxy-2-pyridin-2-yl-pyrimidin-4-yl)-ammonium succinate] | 
 | 900 | O=C(/C=C/c1ccc2c(c1)OCO2)N(c1ccccc1)C1CCCCC1 [Compound 3-3] | 
1200 |  | COc1cnc(-c2ccccn2)nc1NCC1CC1 [Compound 2-11] | 
 | 700 | O=C(/C=C/c1ccc2c(c1)OCO2)N(Cc1ccccc1)c1ccccn1 [Compound 3-12] | 
 | 700 | O=C(/C=C/c1ccccc1Cl)N(c1ccccn1)C1CCCCC1 [Compound 3-41] | 
 |  | C[C@H]1OC(=O)C2=C1N1CCc3ccccc3C1CC21SCCCS1 (stereo partly shown) [Compound 1-6] | EC50 (Table A, structure type 1): 200 nM
 | 3900 | CC(C)N(Cc1ccccc1)C(=O)/C=C/c1ccc2c(c1)OCO2 [Compound 3-13] | 
 | 800 | O=C(/C=C/c1ccc2c(c1)OCO2)N(c1ccccc1)c1ccccc1 [Compound 3-6, (E)-3-benzo[1,3]dioxol-5-yl-N,N-diphenyl-acrylamide] | 
